This is an account of results in patent US10336792B2, “Antimicrobial peptide dendrimers” (priority 2014, dated 2019).

Converted amounts (≈) assume the structure as drawn. Like-named read-outs stand apart in the source and are kept apart here. Positions of bridges follow the written chain, without caps; N, C: chain ends. Residues, ends and D or L forms follow the SMILES beside them. Groups on a side chain read outwards from the residue. Chains are numbered I, II in the order given. *: point of attachment. Stearoyl = CCCCCCCCCCCCCCCCCC(=O)*; X1 = CCCCCCCCCCCCCCCCCCCCCCCC(=O)*

Assay type in all cases: cell-based
The test system of assay [1] is Pseudomonas aeruginosa (strain PA01). The assay is described as follows: microbe, parasite or virus in culture. The note with it: strain. The method in brief: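 Broth microdilution MIC against P. aeruginosa PAO1 in LB: peptides serially diluted by ⅔, bacteria added at OD600 0.001 and incubated 18–24 h at 37 °C. MTT added; MIC is the lowest concentration preventing visible growth.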

The subject of assay [2] is Bacillus subtilis (strain BR151). How it is done: (§1) Antimicrobial activity was assayed against Bacillus subtilis (strain BR151), Escherichia coli (strain DH5α) and Pseudomonas aeruginosa (strain PA01). Microdilution broth method was used to determine the minimal inhibitory concentration (MIC). A colony of bacteria was grown in LB-medium overnight at 37° C. The concentration was quantified by measuring absorbance at 600 nm and diluted to OD600=0.1 (1×10^8 CFU/mL). The samples were prepared as stock solutions of 1 mg mL^−1 in H2O and diluted serially by ⅔ in nutrient LB in a 96-well microtiterplate (Cornstar, polypropylene, untreated). The sample solutions (50 μL) were mixed with the diluted bacterial suspension with an OD600 nm of 0.001 (50 μL). […] The plates were incubated at 37° C. until satisfactory growth (18-24 h). For each test, two columns of the plate were kept for sterility control (SC, broth only) and growth control (GC, broth with bacterial inoculums, no antibiotics). 10 μL of a solution of MTT (0.1% in H2O) was added to each well. The minimal inhibitory concentration (MIC) was defined as the lowest concentration of the antimicrobial substance (peptide dendrimer) that inhibited visible growth of the tested bacteria (yellow) with the unaided eye. For microbiological study the linear peptide LysTyrLysLysAlaLeuLysLysLeuAlaLysLeuLeu (SEQ ID No. 1) was used as reference.
(§2) The AMPD library was tested for their antimicrobial activity against B. subtilis BR151, a Gram-positive bacterium and E. coli DH5α, another Gram-negative bacterium, to cover a broader spectrum of different bacteria. […] Therefore no explicit SAR can be established, but clearly the hydrophobic amino acids Ala and Tyr seem to have a significant influence in reducing activity.

The subject of assay [3] is Escherichia coli (strain DH5α). How it is done: as §1, §2

`CC(C)C[C@H](NC(=O)[C@H](CCCNC(=N)N)NC(=O)[C@H](CCCCNC(=O)[C@H](CC(C)C)NC(=O)[C@@H](N)CCCNC(=N)N)NC(=O)[C@H](CC(C)C)NC(=O)[C@@H](N)CCCNC(=N)N)C(=O)NCCCC[C@H](NC(=O)[C@H](CC(C)C)NC(=O)[C@H](CCCNC(=N)N)NC(=O)[C@H](CCCCNC(=O)[C@H](CC(C)C)NC(=O)[C@@H](N)CCCNC(=N)N)NC(=O)[C@H](CC(C)C)NC(=O)[C@@H](N)CCCNC(=N)N)C(=O)N[C@@H](CCCNC(=N)N)C(=O)N[C@@H](CC(C)C)C(=O)N[C@@H](CSSC[C@H](NC(=O)[C@H](CC(C)C)NC(=O)[C@H](CCCNC(=N)N)NC(=O)[C@H](CCCCNC(=O)[C@H](CC(C)C)NC(=O)[C@H](CCCNC(=N)N)NC(=O)[C@H](CCCCNC(=O)[C@H](CC(C)C)NC(=O)[C@@H](N)CCCNC(=N)N)NC(=O)[C@H](CC(C)C)NC(=O)[C@@H](N)CCCNC(=N)N)NC(=O)[C@H](CC(C)C)NC(=O)[C@H](CCCNC(=N)N)NC(=O)[C@H](CCCCNC(=O)[C@H](CC(C)C)NC(=O)[C@@H](N)CCCNC(=N)N)NC(=O)[C@H](CC(C)C)NC(=O)[C@@H](N)CCCNC(=N)N)C(N)=O)C(N)=O` [CCS-18 dimer, ((RL)4(KRL)2KRLC)2] (I: H-RLK([Leu-Arg])RLKRLC-NH2 / II: H-RLK([Leu-Arg])RLKRLC-NH2 / III: H-RLK([Leu-Arg])RL / IV: H-RLK([Leu-Arg])RL; amide I:6-III:C, II:6-IV:C; disulfide I:9-II:9; N-terminus assumed): the “MIC P. aeruginosa PAO1” value in assay [1] was 9 µg/mL (≈ 1.88 µM). Further, the “MIC B. subtilis BR151” value in assay [2] (strain BR151) is 9 µg/mL (≈ 1.88 µM). Also, the “MIC E. coli DH5α” value in assay [3] (DH5α) came to 13 µg/mL (≈ 2.72 µM).
As to `CCCCCCCCCCCCCCCCCC(=O)NCCCC[C@H](NC(=O)[C@H](CC(C)C)NC(=O)[C@H](CCCCN)NC(=O)[C@H](CCCCNC(=O)[C@H](CC(C)C)NC(=O)[C@H](CCCCN)NC(=O)[C@H](CCCCNC(=O)[C@H](CC(C)C)NC(=O)[C@H](CCCCN)NC(=O)[C@H](CCCCNC(=O)[C@H](CC(C)C)NC(=O)[C@@H](N)CCCCN)NC(=O)[C@H](CC(C)C)NC(=O)[C@@H](N)CCCCN)NC(=O)[C@H](CC(C)C)NC(=O)[C@H](CCCCN)NC(=O)[C@H](CCCCNC(=O)[C@H](CC(C)C)NC(=O)[C@@H](N)CCCCN)NC(=O)[C@H](CC(C)C)NC(=O)[C@@H](N)CCCCN)NC(=O)[C@H](CC(C)C)NC(=O)[C@H](CCCCN)NC(=O)[C@H](CCCCNC(=O)[C@H](CC(C)C)NC(=O)[C@H](CCCCN)NC(=O)[C@H](CCCCNC(=O)[C@H](CC(C)C)NC(=O)[C@@H](N)CCCCN)NC(=O)[C@H](CC(C)C)NC(=O)[C@@H](N)CCCCN)NC(=O)[C@H](CC(C)C)NC(=O)[C@H](CCCCN)NC(=O)[C@H](CCCCNC(=O)[C@H](CC(C)C)NC(=O)[C@@H](N)CCCCN)NC(=O)[C@H](CC(C)C)NC(=O)[C@@H](N)CCCCN)C(N)=O` [MSt-284, (KL)8(KKL)4(KKL)2(KKLKC18)] (I: H-KLK([Leu-Lys])KLKKLKKLK(Stearoyl)-NH2 / II: H-KLK([Leu-Lys])KLKKL / III: H-KLK([Leu-Lys])KL / IV: H-KLK([Leu-Lys])KL; amide I:6-IV:C, I:9-II:C, II:6-III:C), the “MIC P. aeruginosa PAO1” value in assay [1] worked out at 9 µg/mL (≈ 1.83 µM). Further, the “MIC B. subtilis BR151” value in assay [2] (strain BR151) stood at 6 µg/mL (≈ 1.22 µM). Also, in assay [3] (DH5α), the “MIC E. coli DH5α” value was determined as 3 µg/mL (≈ 0.609 µM).
For the molecule `CCCCCCCCCCCCCCCCCCCCCCCC(=O)NCCCC[C@H](NC(=O)[C@H](CC(C)C)NC(=O)[C@H](CCCCN)NC(=O)[C@H](CCCCNC(=O)[C@H](CC(C)C)NC(=O)[C@H](CCCCN)NC(=O)[C@H](CCCCNC(=O)[C@H](CC(C)C)NC(=O)[C@H](CCCCN)NC(=O)[C@H](CCCCNC(=O)[C@H](CC(C)C)NC(=O)[C@@H](N)CCCCN)NC(=O)[C@H](CC(C)C)NC(=O)[C@@H](N)CCCCN)NC(=O)[C@H](CC(C)C)NC(=O)[C@H](CCCCN)NC(=O)[C@H](CCCCNC(=O)[C@H](CC(C)C)NC(=O)[C@@H](N)CCCCN)NC(=O)[C@H](CC(C)C)NC(=O)[C@@H](N)CCCCN)NC(=O)[C@H](CC(C)C)NC(=O)[C@H](CCCCN)NC(=O)[C@H](CCCCNC(=O)[C@H](CC(C)C)NC(=O)[C@H](CCCCN)NC(=O)[C@H](CCCCNC(=O)[C@H](CC(C)C)NC(=O)[C@@H](N)CCCCN)NC(=O)[C@H](CC(C)C)NC(=O)[C@@H](N)CCCCN)NC(=O)[C@H](CC(C)C)NC(=O)[C@H](CCCCN)NC(=O)[C@H](CCCCNC(=O)[C@H](CC(C)C)NC(=O)[C@@H](N)CCCCN)NC(=O)[C@H](CC(C)C)NC(=O)[C@@H](N)CCCCN)C(N)=O` [MSt-285, (KL)8(KKL)4(KKL)2(KKLKC24)] (I: H-KLK([Leu-Lys])KLKKLKKLK(X1)-NH2 / II: H-KLK([Leu-Lys])KLKKL / III: H-KLK([Leu-Lys])KL / IV: H-KLK([Leu-Lys])KL; amide I:6-IV:C, I:9-II:C, II:6-III:C), the “MIC P. aeruginosa PAO1” value in assay [1] was determined as 12 µg/mL (≈ 2.39 µM). Besides, the “MIC B. subtilis BR151” value in assay [2] (strain BR151) is 16 µg/mL (≈ 3.19 µM). Further, in assay [3] (DH5α), the “MIC E. coli DH5α” value stood at 5 µg/mL (≈ 0.997 µM).
As for `CC(C)C[C@H](NC(=O)[C@H](CCCCN)NC(=O)[C@H](CCCCNC(=O)[C@H](CC(C)C)NC(=O)[C@H](CCCCN)NC(=O)[C@H](CCCCNC(=O)[C@H](CC(C)C)NC(=O)[C@H](CCCCN)NC(=O)CSC[C@H](NC(=O)[C@H](CC(C)C)NC(=O)[C@H](CCCCN)NC(=O)[C@H](CCCCNC(=O)[C@H](CC(C)C)NC(=O)[C@@H](N)CCCCN)NC(=O)[C@H](CC(C)C)NC(=O)[C@@H](N)CCCCN)C(N)=O)NC(=O)[C@H](CC(C)C)NC(=O)[C@H](CCCCN)NC(=O)CSC[C@H](NC(=O)[C@H](CC(C)C)NC(=O)[C@H](CCCCN)NC(=O)[C@H](CCCCNC(=O)[C@H](CC(C)C)NC(=O)[C@@H](N)CCCCN)NC(=O)[C@H](CC(C)C)NC(=O)[C@@H](N)CCCCN)C(N)=O)NC(=O)[C@H](CC(C)C)NC(=O)[C@H](CCCCN)NC(=O)[C@H](CCCCNC(=O)[C@H](CC(C)C)NC(=O)[C@H](CCCCN)NC(=O)CSC[C@H](NC(=O)[C@H](CC(C)C)NC(=O)[C@H](CCCCN)NC(=O)[C@H](CCCCNC(=O)[C@H](CC(C)C)NC(=O)[C@@H](N)CCCCN)NC(=O)[C@H](CC(C)C)NC(=O)[C@@H](N)CCCCN)C(N)=O)NC(=O)[C@H](CC(C)C)NC(=O)[C@H](CCCCN)NC(=O)CSC[C@H](NC(=O)[C@H](CC(C)C)NC(=O)[C@H](CCCCN)NC(=O)[C@H](CCCCNC(=O)[C@H](CC(C)C)NC(=O)[C@@H](N)CCCCN)NC(=O)[C@H](CC(C)C)NC(=O)[C@@H](N)CCCCN)C(N)=O)C(N)=O` [CCS-20, (KL)8(KKLCxKL)4(KKL)2KKL], the “MIC P. aeruginosa PAO1” value in assay [1] turned out to be 3 µg/mL (≈ 0.489 µM). Also, the “MIC B. subtilis BR151” value in assay [2] (strain BR151) is 10 µg/mL (≈ 1.63 µM). In assay [3] (DH5α), the “MIC E. coli DH5α” value worked out at 4 µg/mL (≈ 0.651 µM).
For the molecule `CC(C)C[C@H](NC(=O)[C@H](CCCCN)NC(=O)[C@H](CC(C)C)NC(=O)[C@H](CCCCN)NC(=O)[C@H](CC(C)C)NC(=O)[C@H](CCCCN)NC(=O)[C@H](CC(C)C)NC(=O)[C@H](CCCCN)NC(=O)[C@H](CC(C)C)NC(=O)[C@H](CCCCN)NC(=O)[C@H](CC(C)C)NC(=O)[C@H](CCCCN)NC(=O)[C@H](CC(C)C)NC(=O)[C@@H](N)CCCCN)C(N)=O` [MSt-117, KLKLKLKLKLKLKL, reference compound] (H-KLKLKLKLKLKLKL-NH2), in assay [2] (strain BR151), the “MIC B. subtilis BR151” value is 14 µg/mL (≈ 8.2 µM). Further, the “MIC E. coli DH5α” value in assay [3] (DH5α) was 13 µg/mL (≈ 7.62 µM).
Regarding “(KL)32(KKL)16(KKLCxKL)8(KKL)4(KKL)2KKL [CCS-15]”, the “MIC B. subtilis BR151” value in assay [2] (LB medium) stood at 26 µg/mL. Besides, the “MIC E. coli DH5α” value in assay [3] (LB medium) was found to be 8 µg/mL.
Turning to `CCCCCCCCCCCCCCCCCCCCCCCC(=O)NCCCC[C@H](NC(=O)[C@H](CC(C)C)NC(=O)[C@H](CCCCN)NC(=O)[C@H](CCCCNC(=O)[C@H](CC(C)C)NC(=O)[C@H](CCCCN)NC(=O)[C@H](CCCCNC(=O)[C@H](CC(C)C)NC(=O)[C@@H](N)CCCCN)NC(=O)[C@H](CC(C)C)NC(=O)[C@@H](N)CCCCN)NC(=O)[C@H](CC(C)C)NC(=O)[C@H](CCCCN)NC(=O)[C@H](CCCCNC(=O)[C@H](CC(C)C)NC(=O)[C@@H](N)CCCCN)NC(=O)[C@H](CC(C)C)NC(=O)[C@@H](N)CCCCN)C(N)=O` [MSt-287, (KL)4(KKL)2(KKLKC24)] (I: H-KLK([Leu-Lys])KLKKLK(X1)-NH2 / II: H-KLK([Leu-Lys])KL; amide I:6-II:C), the “MIC B. subtilis BR151” value in assay [2] (strain BR151) worked out at 26 µg/mL (≈ 10.1 µM). Further, in assay [3] (DH5α), the “MIC E. coli DH5α” value was determined as 13 µg/mL (≈ 5.06 µM).
